Reference: US10035794B2, “Heterocyclic derivatives and their use in the treatment of neurological disorders” (NOVARTIS AG, priority 2011, dated 2018)
Counter-ions that a name gives are not always drawn.

Assay: Test 4: Inhibition of Cellular Release of Amyloid Peptide 1-40
Assay type: cell-based, Chinese hamster
Settings: Cricetulus griseus, CHO, 24 h; read-out: Amyloid-β1-40 release IC50
Method: Chinese hamster ovary cells are transfected with the human gene for amyloid precursor protein. The cells are plated at a density of 8000 cells/well into 96-well microtiter plates and cultivated for 24 hours in DMEM cell culture medium containing 10% FCS. The test compound is added to the cells at various concentrations, and the cells are cultivated for 24 hours in the presence of the test compound.

| Compound | IC50 [nM] |
| --- | --- |
| CC1(c2cccc(NC(=O)c3ccc(Br)cn3)n2)COCC(N)=N1 (racemic) [Example 2, 5-Bromo-pyridine-2-carboxylic acid [6-(5-amino-3-methyl-3,6-dihydro-2H-[1,4]-oxazin-3-yl)-pyridin-2-yl]-amide] | 58 |
| C[C@@]1(c2cccc(NC(=O)c3ccc(Br)cn3)n2)COCC(N)=N1 [Example 1, 5-Bromo-pyridine-2-carboxylic acid [6-((R)-5-amino-3-methyl-3,6-dihydro-2H-[1,4]-oxazin-3-yl)-pyridin-2-yl]-amide] | 41 |
| [2H]c1nc(C(=O)Nc2cccc(C3(CF)COCC(N)=N3)n2)c(C([2H])([2H])[2H])c([2H])c1Cl (centres unmarked) [Example 6, 5-{6-[(4,6-Dideutero-5-chloro-3-trideuteromethyl-pyridine-2-carbonyl)-amino]-pyridin-2-yl}-5-fluoromethyl-5,6-dihydro-2H-[1,4]oxazin-3-yl-ammonium trifluoro acetate] | 63 |
| Cc1cc(C#N)cnc1C(=O)Nc1cccc([C@]2(C)CO[C@@](C)(C(F)(F)F)C(N)=N2)n1 [Example 8, 5-Cyano-3-methyl-pyridine-2-carboxylic acid [6-((3R,6R)-5-amino-3,6-dimethyl-6-trifluoro-methyl-3,6-dihydro-2H-[1,4]oxazin-3-yl)-pyridin-2-yl]-amide] | 6 |
| C[C@]1(c2cccc(NC(=O)c3ccc(C#N)cn3)n2)CO[C@@](C)(C(F)(F)F)C(N)=N1 [Example 9, 5-Cyano-pyridine-2-carboxylic acid [6-((3S,6R)-5-amino-3,6-dimethyl-6-trifluoromethyl-3,6-dihydro-2H-[1,4]oxazin-3-yl)-pyridin-2-yl]-amide] | 1900 |
| C[C@@]1(c2cccc(NC(=O)c3ccc(C#N)cn3)n2)CO[C@@](C)(C(F)(F)F)C(N)=N1 [Example 10, 5-Cyano-pyridine-2-carboxylic acid [6-((3R,6R)-5-amino-3,6-dimethyl-6-trifluoromethyl-3,6-dihydro-2H-[1,4]oxazin-3-yl)-pyridin-2-yl]-amide] | 17 |
| Cc1cc(C#N)cnc1C(=O)Nc1ccc(F)c([C@]2(C)CO[C@@](C)(C(F)(F)F)C(N)=N2)n1 [Example 11, 5-Cyano-3-methyl-pyridine-2-carboxylic acid [6-((3R,6R)-5-amino-3,6-dimethyl-6-trifluoromethyl-3,6-dihydro-2H-[1,4]oxazin-3-yl)-5-fluoro-pyridin-2-yl]-amide] | 2 |
| Cc1cc(C#N)cnc1C(=O)Nc1ccc(F)c([C@@]2(C)CO[C@@](C)(C(F)(F)F)C(N)=N2)n1 [Example 12, 5-Cyano-3-methyl-pyridine-2-carboxylic acid [6-((3S,6R)-5-amino-3,6-dimethyl-6-trifluoromethyl-3,6-dihydro-2H-[1,4]oxazin-3-yl)-5-fluoro-pyridin-2-yl]-amide] | 280 |
| [2H]c1nc(C(=O)Nc2cc(C3(CF)COCC(N)=N3)ccn2)c(C([2H])([2H])[2H])c([2H])c1Cl (centres unmarked) [Example 13, 5-{2-[(5-Chloro-4,6-dideutero-3-trideuteromethyl-pyridine-2-carbonyl)-amino]-pyridin-4-yl}-5-fluoromethyl-5,6-dihydro-2H-[1,4]oxazin-3-yl-ammonium acetate] | 550 |
| Cc1cc(C#N)cnc1C(=O)Nc1cc([C@@]2(C)CO[C@@](C)(C(F)(F)F)C(N)=N2)c(F)cn1 [Example 17, 5-Cyano-3-methyl-pyridine-2-carboxylic acid [4-((3S,6R)-5-amino-3,6-dimethyl-6-trifluoromethyl-3,6-dihydro-2H-[1,4]oxazin-3-yl)-5-fluoro-pyridin-2-yl]-amide] | 4800 |
| NC1=NC(CF)(c2cc(NC(=O)c3ccc(Br)cn3)cnc2Cl)COC1 (centres unmarked) [Example 18, 5-Bromo-pyridine-2-carboxylic acid [5-(5-amino-3-fluoromethyl-3,6-dihydro-2H-[1,4]oxazin-3-yl)-6-chloro-pyridin-3-yl]-amide hydrochloride] | 15 |
| C[C@@]1(c2cccc(NC(=O)c3ncc(C#N)cc3N)n2)CO[C@@](C)(C(F)(F)F)C(N)=N1 [Example 19, 3-Amino-5-cyano-pyridine-2-carboxylic acid [6-((3R,6R)-5-amino-3,6-dimethyl-6-trifluoromethyl-3,6-dihydro-2H-[1,4]oxazin-3-yl)-pyridin-2-yl]-amide] | 48 |
| C[C@@]1(c2cccc(NC(=O)c3ncc(C#N)cc3Cl)n2)CO[C@@](C)(C(F)(F)F)C(N)=N1 [Example 20, 3-Chloro-5-cyano-pyridine-2-carboxylic acid [6-((3R,6R)-5-amino-3,6-dimethyl-6-trifluoromethyl-3,6-dihydro-2H-[1,4]oxazin-3-yl)-pyridin-2-yl]-amide] | 5 |
| [2H]c1nc(C(=O)Nc2cccc([C@]3(C)CO[C@@](C)(C(F)(F)F)C(N)=N3)n2)c(C([2H])([2H])[2H])c([2H])c1Cl [Example 21, 5-Chloro-4,6-dideuterio-3-trideuteriomethyl-pyridine-2-carboxylic acid [6-((3R,6R)-5-amino-3,6-dimethyl-6-trifluoromethyl-3,6-dihydro-2H-[1,4]oxazin-3-yl)-pyridin-2-yl]-amide] | 110 |
| C[C@@]1(c2cccc(NC(=O)c3ncc(Br)cc3Cl)n2)CO[C@@](C)(C(F)(F)F)C(N)=N1 [Example 22, 5-Bromo-3-chloro-pyridine-2-carboxylic acid [6-((3R,6R)-5-amino-3,6-dimethyl-6-trifluoromethyl-3,6-dihydro-2H-[1,4]oxazin-3-yl)-pyridin-2-yl]-amide] | 29 |
| COc1cnc(C(=O)Nc2ccc(F)c([C@]3(C)CO[C@@](C)(C(F)(F)F)C(N)=N3)n2)c(C)c1 [Example 25, 5-Methoxy-3-methyl-pyridine-2-carboxylic acid [6-((3R,6R)-5-amino-3,6-dimethyl-6-trifluoromethyl-3,6-dihydro-2H-[1,4]oxazin-3-yl)-5-fluoro-pyridin-2-yl]amide] | 76 |
| Cc1cc(OC(F)F)cnc1C(=O)Nc1ccc(F)c([C@]2(C)CO[C@@](C)(C(F)(F)F)C(N)=N2)n1 [Example 29, 5-Difluoromethoxy-3-methyl-pyridine-2-carboxylic acid [6-((3R,6R)-5-amino-3,6-dimethyl-6-trifluoromethyl-3,6-dihydro-2H-[1,4]oxazin-3-yl)-5-fluoro-pyridin-2-yl]amide] | 24 |
| Cc1cc(OCF)cnc1C(=O)Nc1ccc(F)c([C@]2(C)CO[C@@](C)(C(F)(F)F)C(N)=N2)n1 [Example 32, 5-Fluoromethoxy-3-methyl-pyridine-2-carboxylic acid [6-((3R,6R)-5-amino-3,6-dimethyl-6-trifluoromethyl-3,6-dihydro-2H-[1,4]oxazin-3-yl)-5-fluoro-pyridin-2-yl]amide] | 26 |
| Cc1cnc(C(=O)Nc2ccc(F)c([C@]3(C)CO[C@@](C)(C(F)(F)F)C(N)=N3)n2)cn1 [Example 33, 5-Methyl-pyrazine-2-carboxylic acid [6-((3R,6R)-5-amino-3,6-dimethyl-6-trifluoromethyl-3,6-dihydro-2H-[1,4]oxazin-3-yl)-5-fluoro-pyridin-2-yl]amide] | 130 |
| C[C@@]1(c2cc(NC(=O)c3ncc(C#N)cc3Cl)ncc2F)CO[C@@](C)(C(F)(F)F)C(N)=N1 [Example 35, 3-Chloro-5-cyano-pyridine-2-carboxylic acid [4-((3R,6R)-5-amino-3,6-dimethyl-6-trifluoromethyl-3,6-dihydro-2H-[1,4]oxazin-3-yl)-5-fluoro-pyridin-2-yl]-amide] | 140 |
